Experimental data: US20120122860A1, “SOLID FORMS OF SULFONAMIDES AND AMINO ACIDS” (Plexxikon, Inc., priority 2009, published 2012)

Tests used:
B-Raf = B-Raf (Homo sapiens, UniProt P15056); experiment: Kinase activity assay, B-Raf; format: biochemical; settings: read-out: activity toward kinase B-Raf, IC50
B-Raf V600E = B-Raf V600E (Homo sapiens, UniProt P15056, V600E); experiment: Kinase activity assay, B-Raf V600E; format: biochemical; settings: read-out: activity toward kinase B-Raf V600E, IC50
Btk = Btk (Homo sapiens, UniProt Q06187); experiment: Kinase activity assay, Btk
Fms = Fms (Homo sapiens, UniProt P07333); experiment: Kinase activity assay, Fms
Kdr = Kdr (Homo sapiens, UniProt P35968); experiment: Kinase activity assay, Kdr
Kit = Kit (Homo sapiens, UniProt P10721); experiment: Kinase activity assay, Kit
Src = Src (Homo sapiens, UniProt P12931); experiment: Kinase activity assay, Src

Measured: IC50

Src, sequence (P12931 whole entry): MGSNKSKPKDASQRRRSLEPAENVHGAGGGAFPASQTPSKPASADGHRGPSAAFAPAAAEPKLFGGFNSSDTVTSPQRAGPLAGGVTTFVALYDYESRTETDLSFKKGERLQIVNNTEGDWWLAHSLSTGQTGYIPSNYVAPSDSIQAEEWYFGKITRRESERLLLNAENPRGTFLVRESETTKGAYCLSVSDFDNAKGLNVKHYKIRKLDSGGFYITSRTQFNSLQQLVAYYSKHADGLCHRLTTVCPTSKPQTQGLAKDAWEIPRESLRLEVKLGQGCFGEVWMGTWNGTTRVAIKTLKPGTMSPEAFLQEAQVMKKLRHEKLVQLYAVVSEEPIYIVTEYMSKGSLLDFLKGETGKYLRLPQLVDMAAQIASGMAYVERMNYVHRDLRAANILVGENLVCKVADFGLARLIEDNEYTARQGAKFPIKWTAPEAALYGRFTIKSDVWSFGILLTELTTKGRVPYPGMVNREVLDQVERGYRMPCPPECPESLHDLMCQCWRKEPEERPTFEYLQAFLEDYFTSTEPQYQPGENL
Kit, sequence (P10721 26-976): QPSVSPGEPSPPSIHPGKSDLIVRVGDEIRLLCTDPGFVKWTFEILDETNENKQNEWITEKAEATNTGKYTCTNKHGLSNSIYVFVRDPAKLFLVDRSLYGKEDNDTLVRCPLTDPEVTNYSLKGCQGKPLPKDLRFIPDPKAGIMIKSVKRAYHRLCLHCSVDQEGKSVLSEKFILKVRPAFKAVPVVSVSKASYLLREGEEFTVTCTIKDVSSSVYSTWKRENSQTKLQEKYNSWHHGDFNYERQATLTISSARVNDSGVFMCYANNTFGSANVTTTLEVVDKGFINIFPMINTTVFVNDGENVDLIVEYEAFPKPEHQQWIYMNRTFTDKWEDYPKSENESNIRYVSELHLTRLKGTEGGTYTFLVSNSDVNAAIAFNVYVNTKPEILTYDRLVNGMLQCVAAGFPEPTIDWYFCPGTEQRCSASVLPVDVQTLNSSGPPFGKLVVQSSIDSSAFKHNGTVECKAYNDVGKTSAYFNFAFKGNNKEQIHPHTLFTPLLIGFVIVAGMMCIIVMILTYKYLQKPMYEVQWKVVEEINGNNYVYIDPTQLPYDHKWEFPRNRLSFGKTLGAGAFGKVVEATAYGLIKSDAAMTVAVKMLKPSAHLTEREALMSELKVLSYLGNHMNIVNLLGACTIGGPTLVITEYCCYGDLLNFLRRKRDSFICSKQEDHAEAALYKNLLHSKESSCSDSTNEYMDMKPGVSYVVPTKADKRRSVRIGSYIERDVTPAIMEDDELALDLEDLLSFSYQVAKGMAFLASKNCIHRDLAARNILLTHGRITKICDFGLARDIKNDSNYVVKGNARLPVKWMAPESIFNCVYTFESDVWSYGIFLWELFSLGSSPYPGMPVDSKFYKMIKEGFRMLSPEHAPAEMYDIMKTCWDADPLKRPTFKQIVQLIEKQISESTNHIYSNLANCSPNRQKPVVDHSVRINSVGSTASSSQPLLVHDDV
Fms, sequence (P07333 20-972): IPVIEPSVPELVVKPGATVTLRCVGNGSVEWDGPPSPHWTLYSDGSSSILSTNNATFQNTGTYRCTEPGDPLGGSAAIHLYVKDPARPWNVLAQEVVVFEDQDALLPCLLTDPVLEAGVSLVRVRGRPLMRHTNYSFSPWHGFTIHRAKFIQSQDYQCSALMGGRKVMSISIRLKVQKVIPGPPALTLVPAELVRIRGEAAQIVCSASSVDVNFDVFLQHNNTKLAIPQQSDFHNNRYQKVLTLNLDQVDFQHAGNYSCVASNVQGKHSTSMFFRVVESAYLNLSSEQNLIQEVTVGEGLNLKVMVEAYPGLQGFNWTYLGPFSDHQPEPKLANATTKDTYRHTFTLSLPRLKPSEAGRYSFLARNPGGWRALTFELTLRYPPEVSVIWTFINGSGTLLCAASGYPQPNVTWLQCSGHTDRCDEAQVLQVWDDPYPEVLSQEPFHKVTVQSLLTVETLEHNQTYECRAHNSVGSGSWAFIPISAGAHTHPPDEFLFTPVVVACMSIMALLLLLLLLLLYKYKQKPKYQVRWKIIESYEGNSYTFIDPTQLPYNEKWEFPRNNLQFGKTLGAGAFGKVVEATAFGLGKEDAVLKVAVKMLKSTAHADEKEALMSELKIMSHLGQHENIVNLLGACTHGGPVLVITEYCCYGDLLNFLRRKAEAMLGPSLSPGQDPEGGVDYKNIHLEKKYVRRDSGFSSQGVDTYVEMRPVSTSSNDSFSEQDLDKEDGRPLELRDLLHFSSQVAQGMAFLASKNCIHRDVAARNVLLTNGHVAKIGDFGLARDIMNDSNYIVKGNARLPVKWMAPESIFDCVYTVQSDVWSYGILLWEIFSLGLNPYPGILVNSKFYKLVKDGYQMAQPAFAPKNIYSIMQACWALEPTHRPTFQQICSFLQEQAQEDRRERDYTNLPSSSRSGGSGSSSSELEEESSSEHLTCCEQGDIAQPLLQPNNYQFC
B-Raf, sequence (P15056 whole entry): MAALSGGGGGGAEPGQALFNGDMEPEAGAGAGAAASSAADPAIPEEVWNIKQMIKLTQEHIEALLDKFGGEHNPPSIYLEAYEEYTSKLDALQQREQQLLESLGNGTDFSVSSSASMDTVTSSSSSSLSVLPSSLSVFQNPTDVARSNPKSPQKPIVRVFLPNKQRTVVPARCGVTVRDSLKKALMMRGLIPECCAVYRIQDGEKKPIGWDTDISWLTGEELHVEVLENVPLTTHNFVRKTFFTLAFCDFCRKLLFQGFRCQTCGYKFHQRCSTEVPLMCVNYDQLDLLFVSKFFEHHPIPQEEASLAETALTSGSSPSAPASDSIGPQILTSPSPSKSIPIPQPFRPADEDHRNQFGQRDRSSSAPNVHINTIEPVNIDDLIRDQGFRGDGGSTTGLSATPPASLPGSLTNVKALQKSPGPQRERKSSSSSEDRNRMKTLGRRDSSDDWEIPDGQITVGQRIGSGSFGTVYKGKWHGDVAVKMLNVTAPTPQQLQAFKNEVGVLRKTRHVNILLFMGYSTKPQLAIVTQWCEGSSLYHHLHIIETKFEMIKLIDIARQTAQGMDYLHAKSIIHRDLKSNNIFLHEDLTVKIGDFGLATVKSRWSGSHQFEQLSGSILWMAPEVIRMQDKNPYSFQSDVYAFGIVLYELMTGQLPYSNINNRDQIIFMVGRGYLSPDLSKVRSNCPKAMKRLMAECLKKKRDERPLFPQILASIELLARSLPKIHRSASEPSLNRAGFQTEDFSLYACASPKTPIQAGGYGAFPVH
Btk, sequence (Q06187 whole entry): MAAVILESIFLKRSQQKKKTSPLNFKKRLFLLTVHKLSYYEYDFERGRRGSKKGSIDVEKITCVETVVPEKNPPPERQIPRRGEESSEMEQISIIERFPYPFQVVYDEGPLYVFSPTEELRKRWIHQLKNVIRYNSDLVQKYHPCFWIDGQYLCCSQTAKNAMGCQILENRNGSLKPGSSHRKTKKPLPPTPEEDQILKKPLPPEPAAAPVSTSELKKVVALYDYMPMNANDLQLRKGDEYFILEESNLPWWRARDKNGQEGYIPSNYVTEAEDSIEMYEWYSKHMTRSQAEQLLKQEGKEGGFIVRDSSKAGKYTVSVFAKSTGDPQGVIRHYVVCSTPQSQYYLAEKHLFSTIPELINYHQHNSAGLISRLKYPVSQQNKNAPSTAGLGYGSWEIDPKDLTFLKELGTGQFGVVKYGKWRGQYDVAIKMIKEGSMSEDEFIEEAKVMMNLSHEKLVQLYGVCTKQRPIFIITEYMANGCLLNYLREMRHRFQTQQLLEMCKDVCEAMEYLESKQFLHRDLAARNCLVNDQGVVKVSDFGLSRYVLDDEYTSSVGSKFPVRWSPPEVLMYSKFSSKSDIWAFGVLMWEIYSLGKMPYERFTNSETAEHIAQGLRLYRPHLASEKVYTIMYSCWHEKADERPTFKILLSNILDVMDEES
B-Raf V600E, sequence (P15056 whole entry V600E): as the sequence (P15056 whole entry) above, with V600E counted along it

CCCS(=O)(=O)Nc1ccc(F)c(C(=O)c2c[nH]c3ncc(-c4ccc(OC)nc4OC)cc23)c1F [P-2184, Propane-1-sulfonic acid {3-[5-(2,6-dimethoxy-pyridin-3-yl)-1H-pyrrolo[2,3-b]pyridine-3-carbonyl]-2,4-difluoro-phenyl}-amide]
≤ 10 µM: all assays above

Cn1cc(-c2cnc3[nH]cc(C(=O)c4cc(NS(=O)(=O)c5cccc(OC(F)(F)F)c5)ccc4F)c3c2)cn1 [P-2102, N-{4-Fluoro-3-[5-(1-methyl-1H-pyrazol-4-yl)-1H-pyrrolo[2,3-b]pyridine-3-carbonyl]-phenyl}-3-trifluoromethoxy-benzenesulfonamide]
≤ 10 µM: all assays above

CCCS(=O)(=O)Nc1ccc(F)c(C(=O)c2c[nH]c3ncc(-c4ccc(S(N)(=O)=O)cc4)cc23)c1F [P-2194, 4-{3-[2,6-Difluoro-3-(propane-1-sulfonylamino)-benzoyl]-1H-pyrrolo[2,3-b]pyridin-5-yl}-benzenesulfonamide]
≤ 10 µM: all assays above

CCCS(=O)(=O)Nc1ccc(F)c(C(=O)c2c[nH]c3ncc(-c4ccc(F)c(OC)c4)cc23)c1F [P-2159, Propane-1-sulfonic acid {2,4-difluoro-3-[5-(4-fluoro-3-methoxy-phenyl)-1H-pyrrolo[2,3-b]pyridine-3-carbonyl]-phenyl}-amide]
not listed: B-Raf
≤ 10 µM: all other assays above

CCCS(=O)(=O)Nc1ccc(F)c(C(=O)c2c[nH]c3ncc(-c4cnn(Cc5ccccc5)c4)cc23)c1F [P-2190, Propane-1-sulfonic acid {3-[5-(1-benzyl-1H-pyrazol-4-yl)-1H-pyrrolo[2,3-b]pyridine-3-carbonyl]-2,4-difluoro-phenyl}-amide]
≤ 10 µM: all assays above

CCCS(=O)(=O)Nc1ccc(F)c(C(=O)c2c[nH]c3ncc(-c4cnn(CC(C)C)c4)cc23)c1F [P-2157, Propane-1-sulfonic acid {2,4-difluoro-3-[5-(1-isobutyl-1H-pyrazol-4-yl)-1H-pyrrolo[2,3-b]pyridine-3-carbonyl]-phenyl}-amide]
not listed: B-Raf
≤ 10 µM: all other assays above

Cn1cc(-c2cnc3[nH]cc(C(=O)c4cc(NS(=O)(=O)c5cccc(Cl)c5)ccc4F)c3c2)cn1 [P-2103, 3-Chloro-N-{4-fluoro-3-[5-(1-methyl-1H-pyrazol-4-yl)-1H-pyrrolo[2,3-b]pyridine-3-carbonyl]-phenyl}-benzenesulfonamide]
≤ 10 µM: all assays above
